According to paper PMC12715762, “Discovery of VU6052254: A Novel, Potent M1 Positive Allosteric Modulator” (ACS Chemical Neuroscience, 2025):
Converted amounts (≈) assume the structure as drawn. “And” between values parts separate entries of the source, which are not always exact repeats. Equal entries are not always repeated. Where two headings read alike, the source gives them in different places.

What was measured:
[1] = kinetic / aqueous solubility; assay type: physicochemical; details: for solubility kinetic: aqueous medium, kinetic from dmso stock
human M1 [2] = target: T1, human M1 (Homo sapiens, UniProt P11229); assay: M1 agonist calcium mobilization assay (human); assay type: cell-based; details: for hM1 Agonist AChmax (%): human M1, % ACh max, n = 9
T1 sequence (P11229 1-460): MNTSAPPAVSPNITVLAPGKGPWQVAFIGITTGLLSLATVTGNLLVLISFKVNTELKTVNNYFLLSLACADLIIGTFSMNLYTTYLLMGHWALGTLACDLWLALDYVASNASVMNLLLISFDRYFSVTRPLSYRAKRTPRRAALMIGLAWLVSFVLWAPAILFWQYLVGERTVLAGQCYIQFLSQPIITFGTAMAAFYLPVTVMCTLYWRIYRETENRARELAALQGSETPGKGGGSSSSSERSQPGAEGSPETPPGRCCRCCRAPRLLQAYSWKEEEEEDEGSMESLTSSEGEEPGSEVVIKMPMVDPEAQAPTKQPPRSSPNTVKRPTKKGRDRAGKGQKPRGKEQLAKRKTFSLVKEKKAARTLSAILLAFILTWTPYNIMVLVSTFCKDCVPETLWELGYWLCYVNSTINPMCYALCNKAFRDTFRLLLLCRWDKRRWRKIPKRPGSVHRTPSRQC
Method: (§1) Procedures for Biological Experiments
(§2) Calcium mobilization assays:
(§3) All functional cell-based assays were performed in stable Chinese Hamster Ovary (CHO) cell lines constitutively expressing human M5 or human M1 receptors. For full muscarinic selectivity, CHO cells expressing human M3, human M2 plus Gqi5 or human M4 plus Gqi5 were used. Cells were plated at 15,000 cells per 20 µL per well in black 384-well, TC-treated, clear-bottomed plates (Greiner) in Ham’s F12 medium supplemented with 10% FBS and 20 mM HEPES. Cells were incubated overnight at 37 °C under 5% CO2. The following day, the medium was removed and replaced with 1.2 µM Fluo-4 AM (Invitrogen) in assay buffer (Hank’s Balanced Salt Solution supplemented with 20 mM HEPES and 2.5 mM Probenecid, pH 7.4) and the cells were incubated for 50 minutes at 37 °C under 5% CO2. Dye was then removed and replaced with 20 µL of fresh assay buffer. Test compounds at a 10 mM concentration in DMSO were serially diluted in DMSO (either 1:3 or 1:5 dilution) to create a 10-point concentration series. The DMSO solutions were then diluted in assay buffer resulting in compound solutions at 2-times the final assay concentration with the highest assay concentration of 30 µM. The compound plate, cell plate, and plates containing EC20 and EC80 acetylcholine concentrations were placed in a Hamamatsu FDSS 6000 or 7000 kinetic imaging plate reader equipped to measure Ex480/Em540 fluorescence. Data were collected at 1 frame per second. After 2 seconds of collecting baseline fluorescence, 20 µL of the compound solutions were added to the cell plate. This was followed by the addition of an EC20 concentration of acetylcholine at 142 seconds. […] The fluorescence signal was collected for a total of 300 seconds. […] Data were imported and analyzed in Dotmatics Informatics software. by normalizing all data in the individual kinetic traces to the initial fluorescence read. The magnitude of each agonist addition was then determined and normalized to the average maximum response. […] The IC50 determined using the EC80 of acetylcholine is the value reported. […]

human M1 [3] = target: T1, human M1; assay: M1 PAM calcium mobilization assay (human); assay type: cell-based; details: for hM1 PAM AChmax (%): human M1, % ACh max, n = 9
Method: as §1, §2, §3

[4] = solubility in simulated gastric fluid (FaSSGF); assay type: physicochemical; details: fassgf or other biorelevant
Thyroid Hormone = assay: Eurofins radioligand binding; details: Rat
GSH trapping = assay type: in vitro ADME; details: human microsomes; result in words
M1 KO mice = assay: Racine seizure assay in M1 KO mice; assay type: in vivo, mouse; details: result in words
[5] = rat oral dose escalation PK study; assay type: in vivo; details: for AUC(0-t) / Cmax / AUC / Tmax: Sprague-Dawley, plasma; for Cmax / AUC / Tmax: rat, po
Method: Pharmacokinetic profiles in rats following oral single escalating doses Single escalating oral dosing in Sprague-Dawley rats was performed at Frontage Laboratories according to their non-GLP Standard Operating Procedure and IACUC protocols. In short, […]
arterial blood was collected from a femoral artery catheter, and compound concentration was determined in plasma by LC-MS/MS following their non-GLP protocol. PK parameters were determined using Phoenix WinNonlin software (version 6.3). […]

3A4 = 3A4 (Homo sapiens, UniProt P08684); assay: CYP450 phenotyping, recombinant enzymes; assay type: in vitro ADME; details: 3A4, panel of eight recombinant enzymes
Endothelin ETB = Endothelin ETB (Homo sapiens, UniProt P24530); assay: Eurofins radioligand binding
Sodium Channel, Site 2 = assay: Eurofins radioligand binding; details: Site 2, Rat
[6] = system: Calcium Channel L-Type, Benzothiazepine; assay: Eurofins radioligand binding; details: Rat
[7] = IV/PO pharmacokinetics (rat); assay type: in vivo; details: Rat (SD)
[8] = pH 2.2, pH 2.2, aqueous buffer, read-out: Kinetic solubility (pH = 2.2)
[9] = pH 6.8, pH 6.8, aqueous buffer, read-out: Kinetic solubility (pH = 6.8)
[10] = 10 mg/kg, rat PO 10 mpk, 10% Tween
[11] = 10 mg/kg, rat PO 10 mpk, 100% PEG
[12] = 30 mg/kg, rat PO 30 mpk, 10% Tween
[13] = 30 mg/kg, rat PO 30 mpk, 100% PEG
[14] = 100 mg/kg, rat PO 100 mpk, 10% Tween
[15] = 100 mg/kg, rat PO 100 mpk, 100% PEG

Chain of 3A4 (P08684 whole entry): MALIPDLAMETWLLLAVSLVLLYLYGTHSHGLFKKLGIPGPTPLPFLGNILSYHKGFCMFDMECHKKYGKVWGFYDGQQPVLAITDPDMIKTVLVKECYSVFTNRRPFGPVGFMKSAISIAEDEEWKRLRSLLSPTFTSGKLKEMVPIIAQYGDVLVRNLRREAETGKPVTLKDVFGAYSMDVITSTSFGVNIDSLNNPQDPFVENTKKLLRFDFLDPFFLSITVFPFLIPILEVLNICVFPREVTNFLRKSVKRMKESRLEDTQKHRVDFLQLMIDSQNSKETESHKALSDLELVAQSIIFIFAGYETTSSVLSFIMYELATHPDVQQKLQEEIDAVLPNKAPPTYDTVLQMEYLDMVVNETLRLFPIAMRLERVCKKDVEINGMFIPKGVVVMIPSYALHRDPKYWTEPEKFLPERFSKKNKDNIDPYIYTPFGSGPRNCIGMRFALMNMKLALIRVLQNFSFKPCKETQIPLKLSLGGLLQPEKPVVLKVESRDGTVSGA
Chain of Endothelin ETB (P24530 27-442): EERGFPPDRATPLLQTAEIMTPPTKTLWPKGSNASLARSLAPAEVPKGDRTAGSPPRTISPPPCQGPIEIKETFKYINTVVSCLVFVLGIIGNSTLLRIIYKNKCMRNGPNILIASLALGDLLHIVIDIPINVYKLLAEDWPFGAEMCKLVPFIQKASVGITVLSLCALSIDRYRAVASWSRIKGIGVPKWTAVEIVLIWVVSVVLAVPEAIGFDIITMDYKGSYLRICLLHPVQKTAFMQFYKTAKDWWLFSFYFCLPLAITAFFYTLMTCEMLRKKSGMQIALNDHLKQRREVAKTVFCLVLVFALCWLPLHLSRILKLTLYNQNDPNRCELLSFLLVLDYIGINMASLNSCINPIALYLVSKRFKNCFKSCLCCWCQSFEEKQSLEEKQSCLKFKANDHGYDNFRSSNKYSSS

**Q.** With `Cn1cc2c(-c3cc(F)c(CN4Cc5ncccc5C4=O)c(F)c3)cccc2n1` [compound 1, reference compound] as the compound, how does the solubility kinetic [1, 8] read?
**A.** Its solubility kinetic is 80.1 µM (≈ 31.3 µg/mL).

**Q.** What about the solubility kinetic [1, 9] of the same compound?
**A.** Its solubility kinetic is 9.75 µM (≈ 3.81 µg/mL).

**Q.** What about the aqueous solubility ([1]; result in words) of the same compound?
**A.** The aqueous solubility was “low aqueous solubility”.

**Q.** And the “hM1 Agonist AChmax (%)” value (human M1 [2])?
**A.** The value was 20%.

**Q.** What about the “hM1 PAM AChmax (%)” value (human M1 [3]) of the same compound?
**A.** The value was 71%.

**Q.** What about the solubility [4] of the same compound?
**A.** Its solubility is 36 µg/mL (≈ 92.2 µM).

**Q.** With `Cn1cc2c(-c3cc(F)c(CN4Cc5ncccc5C4=O)c(F)c3)ccc(C(C)(C)O)c2n1` [compound 7] as the compound, how does the “% Inhibition at 10 µM” value (Thyroid Hormone) read?
**A.** The value was -1%.

**Q.** And the GSH trapping (GSH trapping)?
**A.** Its GSH trapping is “no evidence of GSH trapping”.

**Q.** And the solubility kinetic [1, 8]?
**A.** Its solubility kinetic is 81.5 µM (≈ 36.6 µg/mL).

**Q.** What about the solubility kinetic [1, 9] of the same compound?
**A.** The solubility kinetic was 67.8 µM (≈ 30.4 µg/mL).

**Q.** And the “hM1 Agonist AChmax (%)” value (human M1 [2])?
**A.** The value was 22%.

**Q.** What about the EC50 (human M1 [2]; human M1, n = 9, read-out: hM1 Agonist EC50) of the same compound?
**A.** The EC50 was 3640 nM.

**Q.** And the “hM1 PAM AChmax (%)” value (human M1 [3])?
**A.** Its value is 78% and 80%.

**Q.** What about the EC50 (human M1 [3]; human M1, n = 9, read-out: hM1 PAM EC50) of the same compound?
**A.** The EC50 was 59 nM.

**Q.** And the “Racine-scale effects in M1 KO mice” value (M1 KO mice)?
**A.** The value was “absent”.

**Q.** And the AUC(0-t) ([5]; rat PO 10 mg/kg, 10% aqueous Tween 80 suspension)?
**A.** The AUC(0-t) was 23800 ng·h/mL.

**Q.** And the AUC(0-t) ([5]; rat PO 30 mg/kg, 10% aqueous Tween 80 suspension)?
**A.** Its AUC(0-t) is 66500 ng·h/mL.

**Q.** And the AUC(0-t) ([5]; rat PO 100 mg/kg, 10% aqueous Tween 80 suspension)?
**A.** Its AUC(0-t) is 96200 ng·h/mL.

**Q.** And the Cmax ([5]; 10 mg/kg, rat PO 10 mg/kg, 10% aqueous Tween 80 suspension)?
**A.** The Cmax was 2340 ng/mL.

**Q.** And the AUC [5, 10]?
**A.** Its AUC is 23800 ng·h/mL.

**Q.** What about the Tmax [5, 10] of the same compound?
**A.** The Tmax was 2.17 h.

**Q.** And the AUC [5, 11]?
**A.** Its AUC is 20600 ng·h/mL.

**Q.** And the Cmax [5, 11]?
**A.** Its Cmax is 2390 ng/mL.

**Q.** What about the Tmax [5, 11] of the same compound?
**A.** Its Tmax is 3.33 h.

**Q.** And the Cmax ([5]; 30 mg/kg, rat PO 30 mg/kg, 10% aqueous Tween 80 suspension)?
**A.** The Cmax was 7640 ng/mL.

**Q.** And the AUC [5, 12]?
**A.** Its AUC is 66700 ng·h/mL.

**Q.** And the Tmax [5, 12]?
**A.** The Tmax was 2.67 h.

**Q.** And the AUC [5, 13]?
**A.** Its AUC is 115000 ng·h/mL.

**Q.** And the Cmax [5, 13]?
**A.** The Cmax was 12200 ng/mL.

**Q.** And the Tmax [5, 13]?
**A.** The Tmax was 4 h.

**Q.** And the Cmax ([5]; 100 mg/kg, rat PO 100 mg/kg, 10% aqueous Tween 80 suspension)?
**A.** The Cmax was 10900 ng/mL.

**Q.** What about the AUC [5, 14] of the same compound?
**A.** The AUC was 96800 ng·h/mL.

**Q.** What about the Tmax [5, 14] of the same compound?
**A.** Its Tmax is 4 h.

**Q.** And the AUC [5, 15]?
**A.** The AUC was 316000 ng·h/mL.

**Q.** And the Cmax [5, 15]?
**A.** Its Cmax is 24700 ng/mL.

**Q.** And the Tmax [5, 15]?
**A.** Its Tmax is 4 h.

**Q.** And the “cholinergic signs or adverse events in rat dose escalation” value ([5]; result in words)?
**A.** Its value is “no cholinergic signs or adverse events were noted in rats”.

**Q.** What about the “contribution to metabolism, CYP450 phenotyping” value (3A4) of the same compound?
**A.** Its value is 96.8%.

**Q.** And the inhibition at 10 µM (Endothelin ETB)?
**A.** The inhibition at 10 µM was 6%.

**Q.** What about the “% Inhibition at 10 µM” value (Sodium Channel, Site 2) of the same compound?
**A.** Its value is 22%.

**Q.** And the “% Inhibition at 10 µM” value [6]?
**A.** Its value is 80%.

**Q.** What about the “F (%) po” value ([7]; 10 mg/kg po, 10 mg/kg) of the same compound?
**A.** The value was >100%.

**Q.** What about the clearance ([7]; Sprague-Dawley, plasma, 1 mg/kg iv, read-out: CLp) of the same compound?
**A.** Its clearance is 5.8 mL/min/kg.

**Q.** And the half-life ([7]; Sprague-Dawley, plasma, 1 mg/kg iv, read-out: Elimination t1/2 (converted))?
**A.** The half-life was 3.7 h.

**Q.** And the Vd ([7]; Sprague-Dawley, plasma, 1 mg/kg iv, read-out: Vss)?
**A.** Its Vd is 1.3 L/kg.

**Q.** And the AUC ([7]; Sprague-Dawley, plasma, 10 mg/kg po)?
**A.** The AUC was 110 µM·h.

**Q.** What about the Cmax ([7]; plasma, 10 mg/kg po) of the same compound?
**A.** Its Cmax is 15.9 µM.

**Q.** And the Tmax ([7]; plasma, 10 mg/kg po)?
**A.** The Tmax was 1 h.

**Q.** What about the solubility [4] of the same compound?
**A.** The solubility was 24.8 µg/mL (≈ 55.3 µM).
